Data from patent US9573956B2, “Compounds as dual inhibitors of phosphodiesterases and histone deacetylases” (FUNDACIÓN PARA LA INVESTIGACIÓN MÉDICA APLICADA, priority 2013, dated 2017).
Marks after values point to notes of the source that are not given here.

Columns and labels:
PDE5A = molecular target: T1, PDE5A (Homo sapiens, UniProt O76074); assay: PDE enzyme activity assay (HTRF cGMP), PDE5A; format: biochemical; conditions: recombinant enzyme; read-out: PDE5A1 inhibition (IC50)
T1 construct: they are full-length with N-terminal GST tag; GST (N); purchased BPS Biosciences 60050; host or cells: baculovirus infected Sf9 cells

HDAC3 = molecular target: T2, HDAC3 (Homo sapiens, UniProt O15379); assay: HDAC enzyme activity assay (fluorogenic substrate), HDAC3; format: biochemical; conditions: recombinant enzyme; read-out: HDAC3 inhibition (IC50)
T2 construct: is full-length with C-terminal his tag and human NCOR2, N-terminal GST tag; His (C); purchased BPS Biosciences 50003; host or cells: baculovirus infected Sf9 cells
T2 sequence (O15379 whole entry): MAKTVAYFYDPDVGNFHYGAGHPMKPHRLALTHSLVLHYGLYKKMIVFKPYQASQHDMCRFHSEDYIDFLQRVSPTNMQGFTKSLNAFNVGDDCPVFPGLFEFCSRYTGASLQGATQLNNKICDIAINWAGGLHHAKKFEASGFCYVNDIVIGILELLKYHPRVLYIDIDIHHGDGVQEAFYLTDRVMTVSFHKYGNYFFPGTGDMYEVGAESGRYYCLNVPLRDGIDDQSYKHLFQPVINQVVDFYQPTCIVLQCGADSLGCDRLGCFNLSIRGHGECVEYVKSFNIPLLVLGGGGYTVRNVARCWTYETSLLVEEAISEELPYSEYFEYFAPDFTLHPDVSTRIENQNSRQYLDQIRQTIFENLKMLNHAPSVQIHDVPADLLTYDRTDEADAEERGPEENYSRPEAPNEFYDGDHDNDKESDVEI
T2 sequence (Q9Y618 395-489 partner limits assumed): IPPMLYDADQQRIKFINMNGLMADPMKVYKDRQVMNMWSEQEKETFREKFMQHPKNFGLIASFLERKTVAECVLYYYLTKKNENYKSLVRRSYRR

HDAC1 = HDAC1 (Homo sapiens, UniProt Q13547); assay: HDAC enzyme activity assay (fluorogenic substrate), HDAC1; format: biochemical; conditions: recombinant enzyme; read-out: HDAC1 inhibition (IC50)
Chain of HDAC1 (Q13547 whole entry, canonical isoform): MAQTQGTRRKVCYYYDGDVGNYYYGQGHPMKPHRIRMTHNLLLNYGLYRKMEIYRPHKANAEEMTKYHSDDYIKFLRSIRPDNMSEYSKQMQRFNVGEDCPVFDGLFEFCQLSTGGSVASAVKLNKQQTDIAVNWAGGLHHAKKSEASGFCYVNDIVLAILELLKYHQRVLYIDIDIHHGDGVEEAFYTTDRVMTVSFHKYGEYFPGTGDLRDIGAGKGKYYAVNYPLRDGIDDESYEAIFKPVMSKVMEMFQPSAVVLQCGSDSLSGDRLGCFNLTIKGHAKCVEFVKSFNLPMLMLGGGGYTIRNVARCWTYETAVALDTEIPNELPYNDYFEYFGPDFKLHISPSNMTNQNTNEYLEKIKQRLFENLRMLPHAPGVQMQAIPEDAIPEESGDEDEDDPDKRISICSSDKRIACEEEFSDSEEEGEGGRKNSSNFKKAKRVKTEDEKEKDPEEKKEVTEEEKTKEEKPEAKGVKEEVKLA

PDE9A isoform b = molecular target: T3, PDE9A isoform b (Homo sapiens, UniProt O76083); assay: PDE enzyme activity assay (HTRF cGMP), PDE9A; format: biochemical; conditions: recombinant enzyme; read-out: PDE9A inhibition (IC50)
T3 construct: they are full-length with N-terminal GST tag; GST (N); purchased BPS Biosciences 60090; host or cells: baculovirus infected Sf9 cells
T3 sequence (O76083 1-533 isoform O76083-2): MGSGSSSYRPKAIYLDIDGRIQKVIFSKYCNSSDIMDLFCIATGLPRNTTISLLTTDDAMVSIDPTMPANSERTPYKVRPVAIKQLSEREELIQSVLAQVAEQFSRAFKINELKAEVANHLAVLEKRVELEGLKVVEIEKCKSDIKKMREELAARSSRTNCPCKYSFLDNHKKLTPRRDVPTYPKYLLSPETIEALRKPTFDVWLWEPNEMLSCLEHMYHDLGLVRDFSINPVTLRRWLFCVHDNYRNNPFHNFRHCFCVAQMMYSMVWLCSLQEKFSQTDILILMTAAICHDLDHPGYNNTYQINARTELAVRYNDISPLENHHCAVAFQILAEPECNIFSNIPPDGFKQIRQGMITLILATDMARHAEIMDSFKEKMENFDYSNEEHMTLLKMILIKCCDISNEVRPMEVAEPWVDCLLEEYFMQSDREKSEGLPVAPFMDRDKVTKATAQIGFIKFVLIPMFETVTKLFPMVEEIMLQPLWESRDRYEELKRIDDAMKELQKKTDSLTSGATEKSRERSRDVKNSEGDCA

HDAC2 = molecular target: T4, HDAC2 (Homo sapiens, UniProt Q92769); assay: HDAC enzyme activity assay (fluorogenic substrate), HDAC2; format: biochemical; conditions: recombinant enzyme; read-out: HDAC2 inhibition (IC50)
T4 construct: NM_001527; Cat. #50002) is full-length with C-terminal his tag; His (C); purchased BPS Biosciences 50002; host or cells: baculovirus infected Sf9 cells
T4 sequence (Q92769 whole entry): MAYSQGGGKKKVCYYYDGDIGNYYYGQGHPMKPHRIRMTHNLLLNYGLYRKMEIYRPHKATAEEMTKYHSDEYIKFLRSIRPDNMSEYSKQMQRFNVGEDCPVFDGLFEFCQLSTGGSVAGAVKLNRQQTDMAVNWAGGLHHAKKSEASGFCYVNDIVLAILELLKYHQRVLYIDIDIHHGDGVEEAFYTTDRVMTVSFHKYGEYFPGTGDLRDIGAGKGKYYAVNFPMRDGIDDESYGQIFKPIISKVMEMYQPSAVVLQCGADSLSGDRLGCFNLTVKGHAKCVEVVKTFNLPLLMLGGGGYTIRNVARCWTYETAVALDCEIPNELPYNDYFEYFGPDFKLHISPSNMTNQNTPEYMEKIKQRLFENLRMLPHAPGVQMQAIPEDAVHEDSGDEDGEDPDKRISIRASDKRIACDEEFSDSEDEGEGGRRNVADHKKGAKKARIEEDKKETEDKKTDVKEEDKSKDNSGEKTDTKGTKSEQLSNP

HDAC6 = molecular target: T5, HDAC6 (Homo sapiens, UniProt Q9UBN7); assay: HDAC enzyme activity assay (fluorogenic substrate), HDAC6; format: biochemical; conditions: recombinant enzyme; read-out: HDAC6 inhibition (IC50)
T5 construct: BC069243; Cat. #50006) is full-length with N-terminal GST tag; GST (N); purchased BPS Biosciences 50006; host or cells: baculovirus infected Sf9 cells
T5 sequence (Q9UBN7 1-1215): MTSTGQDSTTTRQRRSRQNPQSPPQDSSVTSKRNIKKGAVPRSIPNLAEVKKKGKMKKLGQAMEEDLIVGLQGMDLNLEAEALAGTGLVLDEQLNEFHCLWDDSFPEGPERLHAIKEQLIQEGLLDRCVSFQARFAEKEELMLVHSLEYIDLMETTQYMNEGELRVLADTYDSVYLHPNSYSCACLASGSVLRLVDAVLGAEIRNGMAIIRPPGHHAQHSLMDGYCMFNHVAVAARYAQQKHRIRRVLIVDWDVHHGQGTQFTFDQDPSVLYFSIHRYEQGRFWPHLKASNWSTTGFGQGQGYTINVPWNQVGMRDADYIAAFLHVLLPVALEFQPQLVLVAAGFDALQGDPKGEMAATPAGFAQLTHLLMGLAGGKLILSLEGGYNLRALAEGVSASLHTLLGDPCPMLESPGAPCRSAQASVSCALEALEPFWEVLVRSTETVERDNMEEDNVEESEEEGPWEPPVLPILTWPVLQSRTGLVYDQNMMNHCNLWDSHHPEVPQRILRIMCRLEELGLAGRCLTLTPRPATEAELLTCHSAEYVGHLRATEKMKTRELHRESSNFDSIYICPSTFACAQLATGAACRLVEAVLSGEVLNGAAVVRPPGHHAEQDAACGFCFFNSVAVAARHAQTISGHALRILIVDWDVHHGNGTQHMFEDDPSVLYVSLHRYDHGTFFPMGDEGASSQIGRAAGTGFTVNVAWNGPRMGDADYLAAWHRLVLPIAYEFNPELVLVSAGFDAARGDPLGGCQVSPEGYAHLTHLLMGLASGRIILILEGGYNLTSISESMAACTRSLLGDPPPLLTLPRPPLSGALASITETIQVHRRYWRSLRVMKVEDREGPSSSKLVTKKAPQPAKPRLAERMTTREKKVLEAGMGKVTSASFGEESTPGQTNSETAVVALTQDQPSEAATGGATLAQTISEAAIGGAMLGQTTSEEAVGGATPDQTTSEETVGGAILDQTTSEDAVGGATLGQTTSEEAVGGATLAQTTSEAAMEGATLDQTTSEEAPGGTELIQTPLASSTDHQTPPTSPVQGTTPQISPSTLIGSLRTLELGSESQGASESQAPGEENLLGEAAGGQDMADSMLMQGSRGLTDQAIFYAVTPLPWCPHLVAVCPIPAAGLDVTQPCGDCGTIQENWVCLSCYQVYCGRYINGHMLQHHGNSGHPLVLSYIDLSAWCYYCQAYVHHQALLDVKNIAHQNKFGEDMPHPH

[1] = test system: acetylated histone 3 at Lys9 (AcH3K9); assay: HDAC activity in wild type primary neurons (Western blot AcH3K9); format: cell-based, mouse; conditions: Mus musculus, Neuron, 0.5 h, 30 min, EC50 = 50% increase in AcH3K9 over basal, read-out: AcH3 (EC50)
pCREB [2] = assay: PDE activity in wild type primary neurons (Western blot pCREB); format: cell-based; conditions: Mus musculus, Neuron, 0.5 h, 30 min, EC50 = 50% increase in pCREB over basal
pCREB [3] = assay: In-vivo activity, hippocampus of wild type mice: pCREB; design: species or system mouse; conditions: i.p. 40 mg/kg, hippocampus one hour later
Procedure: (§1) To determine the ability of the compounds to inhibit HDAC and PDE in the brain, the compound was administered to wild type mice by i.p. at a dose of 40 mg/kg (n=3). Another group of animals received the vehicle (1/1/8, v:v:v, DMSO/Tween 20/saline). One hour later, mice were sacrificed by cervical dislocation and their hippocampus was quickly dissected from the brains.
(§2) Total tissue homogenates were obtained by homogenizing the hippocampus in a cold lysis buffer with protease inhibitors (0.2 M NaCl, 0.1 M HEPES, 10% glycerol, 200 mM NaF, 2 mM Na4P2O7, 5 mM EDTA, 1 mM EGTA, 2 mM DTT, 0.5 mM PMSF, 1 mM Na3VO4 and Complete Protease Inhibitor Cocktail, Roche Diagnostics). The homogenate was then centrifuged at 14,000×g at 4° C. for 20 min and the supernatant aliquoted and stored at −80° C. Total protein concentrations were determined using the BioRad Bradford protein assay (BioRad Laboratories). Protein samples were analyzed as described in the “in vitro” section.

AcH3 = assay: In-vivo activity, hippocampus of wild type mice: AcH3; design: species or system mouse; conditions: i.p. 40 mg/kg, hippocampus one hour later
Procedure: as §1, §2

[4] = Pharmacokinetics, plasma and brain concentrations in wild type mice; format: in vivo; conditions: mouse, ip
Procedure: Plasma and brain samples for measuring compounds concentrations were collected at predetermined times from four wild type mice per point. Three time points were measured: 0.25, 0.5 and 1.0 hour. Compounds concentration was measured using a Xevo-TQ MS triple quadropole mass spectrometer with an electrospray ionization (ESI) source and an Acquity UPLC (Waters, Manchester, UK).
[…]. Compounds were injected as a single intraperitoneal injection. Animals were killed by decapitation.
Plasma. Blood was collected into tubes containing EDTA and plasma was collected via centrifugation (4° C., 13200 rpm, 5 min) and stored at −80° C. until analysis.
Brain. Brains were collected immediately after mice death. The brains were excised, weighed and frozen at −80° C. until further process for analysis.
Chromatographic separation was performed by gradient elution at 0.4 mL/min using an Acquity UPLC BEH C18 column (100×2.1 mm, 1.7 μm particle size; Waters). The mobile phase consisted of A: water with 0.1% formic acid, B: methanol with 0.1% formic acid. After 1.5 min at the initial condition of 95% A, solvent B was increased from 5% to 100% over 2 min, maintained at 100% for 1.5 min, then a linear gradient to initial conditions was applied for 0.1 min and maintained for 3.4 minutes to re-equilibrate the column, giving a cycle time of 8.5 min. The autosampler temperature was set at 10° C. and column temperature at 45° C.
Compounds were monitored using a triple quadrupole mass spectrometer equipped with an electrospray ionization interface. For detection and quantification, a capillary voltage of 3.5 kV and a cone voltage of 38 V were used. Source and desolvation temperatures were 150° C. and 650° C., respectively. Ultra-high purity nitrogen was used for cone gas (75 L h^−1) and desolvation gas (1000 L h^−1). The electrospray ionization operated in the positive mode, and the collision gas used was ultra-pure argon at a flow rate of 0.15 mL min^−1.
Quantification was achieved by external calibration using matrix-matched standards. Concentrations were calculated using a weighted least-squares linear regression (W=1/×). […]. The mixture was then agitated for 10 min and centrifuged at 13200 rpm for 5 min at 4° C. The resulting supernatants were transferred to a Ostro plate (Waters, Manchester, UK), designed to remove phospholipids. The resulting eluents were evaporated at 37° C. under a stream of nitrogen. Residues were dissolved in 75 μL of a mixture of methanol and water (50:50, v:v). A 10-uL aliquot of the resulting solution was injected onto the LC-MS/MS system for analysis. Frozen plasma samples were thawed at room temperature, vortexed thoroughly and subjected to the above described extraction procedure. Brain samples were thawed unassisted at room temperature and homogenized using a Branson 250 ultrasonic sonifier (Branson, Danbury, Conn., USA). When homogenized, 75 mg were weighted and extracted as described previously.
Concentration values obtained from the LC-MS/MS analyses are described in Table 4.

PDE4A1 = molecular target: T6, PDE4A1 (Homo sapiens, UniProt P27815); assay: PDE enzyme activity assay (HTRF cGMP), PDE4A1; format: biochemical; conditions: recombinant enzyme; read-out: PDE4A1 inhibition (IC50)
T6 construct: they are full-length with N-terminal GST tag; GST (N); purchased BPS Biosciences 60040; host or cells: baculovirus infected Sf9 cells
T6 sequence (P27815 1-647 isoform P27815-4): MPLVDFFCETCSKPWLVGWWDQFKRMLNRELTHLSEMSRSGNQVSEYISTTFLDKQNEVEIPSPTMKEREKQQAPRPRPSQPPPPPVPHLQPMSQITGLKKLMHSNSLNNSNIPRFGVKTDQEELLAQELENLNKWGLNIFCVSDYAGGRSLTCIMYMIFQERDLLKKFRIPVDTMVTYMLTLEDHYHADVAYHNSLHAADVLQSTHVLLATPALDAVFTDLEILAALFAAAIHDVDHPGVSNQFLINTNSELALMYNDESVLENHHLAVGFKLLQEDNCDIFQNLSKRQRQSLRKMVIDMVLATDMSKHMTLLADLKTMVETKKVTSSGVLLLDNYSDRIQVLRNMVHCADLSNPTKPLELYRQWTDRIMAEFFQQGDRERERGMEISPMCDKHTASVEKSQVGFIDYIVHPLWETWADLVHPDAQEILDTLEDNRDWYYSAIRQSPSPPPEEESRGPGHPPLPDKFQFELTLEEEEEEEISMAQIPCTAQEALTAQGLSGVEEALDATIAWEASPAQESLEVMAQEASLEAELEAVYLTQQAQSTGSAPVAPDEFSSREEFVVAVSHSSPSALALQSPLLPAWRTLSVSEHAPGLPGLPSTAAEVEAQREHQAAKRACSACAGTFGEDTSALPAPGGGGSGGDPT

Structure (SMILES) | IC50 (PDE5A) | IC50 (HDAC3) | IC50 (HDAC1) | IC50 (PDE9A isoform b) | IC50 (HDAC2) | IC50 (HDAC6) | EC50 [1] | EC50 (pCREB [2]) | pCREB, increment in biological response vs basal (pCREB [3]) | AcH3, increment in biological response vs basal (AcH3) | CMax (brain; nmol/Kg) ([4]; in vivo, 40 mg/kg) | Tmax ([4]; dosage 40 mg/Kg, single intraperitoneal injection, wild type mice, time of maximum concentration in brain) | Cmax ([4]; plasma, dosage 40 mg/Kg, single intraperitoneal injection, wild type mice, at tMax, (Standard Deviation)) | IC50 (PDE4A1)
CCCc1nn(C)c2c(=O)[nH]c(-c3cc(S(=O)(=O)NC4CCN(c5ncc(C(=O)NO)cn5)CC4)ccc3OCC)nc12 [Example 1-07] | < 10 nM | 10 to 1000 nM | 10 to 1000 nM | 1000 to 10000 nM | 10 to 1000 nM | 10 to 1000 nM | – | – | – | – | – | – | – | –
CCCc1nn(C)c2c(=O)[nH]c(-c3cc(OC4CCN(c5ncc(C(=O)NO)cn5)CC4)ccc3OCC)nc12 [Example 1-12] | 10 to 1000 nM | – | 10 to 1000 nM | 1000 to 10000 nM | – | – | 10 to 1000 nM | 10 to 1000 nM | +++ (basal×2≦(+++)<basal×3) | ++ (basal×1≦(++)<basal×2) | 71.3 (19.5)^c nmol/Kg | 15 min | 1880 nM | –
CCCc1nn(C)c2c(=O)[nH]c(-c3cc(Cc4ccc(C(=O)NO)o4)ccc3OCC)nc12 [Example 1-17] | < 10 nM | > 10000 nM | 1000 to 10000 nM | – | > 10000 nM | 10 to 1000 nM | – | – | – | – | – | – | – | –
CCCc1nn(C)c2c(=O)[nH]c(-c3cc(Cc4ccc(CC(=O)NO)cc4)ccc3OCC)nc12 [Example 1-18] | 10 to 1000 nM | > 10000 nM | > 10000 nM | – | > 10000 nM | 10 to 1000 nM | – | – | – | – | – | – | – | –
CCCc1nn(C)c2c(=O)[nH]c(-c3cc(NC4CCN(c5ncc(C(=O)NO)cn5)CC4)ccc3OCC)nc12 [Example 1-22, 2-[4-[4-ethoxy-3-(1-methyl-7-oxo-3-propyl-6H-pyrazolo[4,3-d]pyrimidin-5-yl)anilino]-1-piperidyl]pyrimidine-5-carbohydroxamic acid] | < 10 nM | 10 to 1000 nM | 10 to 1000 nM | – | 10 to 1000 nM | 10 to 1000 nM | – | – | – | – | – | – | – | –
CCCc1nn(C)c2c(=O)[nH]c(-c3cc(CC4CCN(c5ncc(C(=O)NO)cn5)CC4)ccc3OCC)nc12 [Example 1-24, 2-[4-[[4-ethoxy-3-(1-methyl-7-oxo-3-propyl-6H-pyrazolo[4,3-d]pyrimidin-5-yl)phenyl]methyl]-1-piperidyl]pyrimidine-5-carbohydroxamic acid] | < 10 nM | 10 to 1000 nM | 10 to 1000 nM | – | 10 to 1000 nM | 1000 to 10000 nM | – | – | – | – | – | – | – | –
CCCc1nn(C)c2c(=O)[nH]c(-c3cc(N(C)C4CCN(c5ncc(C(=O)NO)cn5)CC4)ccc3OCC)nc12 [Example 1-25] | < 10 nM | 10 to 1000 nM | 10 to 1000 nM | – | 10 to 1000 nM | 10 to 1000 nM | 10 to 1000 nM | 1000 to 10000 nM | – | – | – | – | – | –
C[C@@H]1CN(Cc2ncccn2)C[C@H]1c1nc2c(cnn2C2CCOCC2)c(=O)[nH]1 [PF-4447943, 6-[(3S,4S)-4-methyl-1-(pyrimidin-2-ylmethyl)pyrrolidin-3-yl]-1-(tetrahydro-2H-pyran-4-yl)-1H-pyrazolo[3,4-d]pyrimidin-4(5H)-one, reference compound] | 1000 to 10000 nM | – | – | – | – | – | – | – | – | – | – | – | – | 1000 to 10000 nM
O=C(CCCCCCC(=O)Nc1ccccc1)NO [Vorinostat, reference compound] | > 10000 nM | – | – | > 10000 nM | – | – | – | – | N.E. (N.E. means No Effect) | +++ (basal×2≦(+++)<basal×3) | – | – | – | –
